Data from ChEMBL document CHEMBL5584362, “Sucurchalasins A and B, Sulfur-Containing Heterodimers of a Cytochalasan and a Macrolide from the Endophytic Fungus Aspergillus spelaeus GDGJ-286” (J Nat Prod, 2024).
pIC50: −log10 of the molar value. Converted amounts (≈) assume the structure as drawn. The source made the active and inactive calls. The rule behind the calls is not given here.

Tests used:
Staphylococcus aureus [1] = test: Antibacterial activity against Staphylococcus aureus measured after 20 to 45 mins by broth microdilution method; assay type: functional; details: time 20-45 min
Enterococcus faecalis = test: Antibacterial activity against Enterococcus faecalis measured after 20 to 45 mins by broth microdilution method; assay type: functional; details: time 20-45 min
HepG2 = test: Cytotoxicity against human HepG2 cells by MTT assay; assay type: functional, cell-based
Vibrio parahaemolyticus [2] = test: Antibacterial activity against Vibrio parahaemolyticus measured after 20 to 45 mins by broth microdilution method; assay type: functional; details: time 20-45 min
Salmonella typhi [3] = test: Antibacterial activity against Salmonella typhi measured after 20 to 45 mins by broth microdilution method; assay type: functional, Salmonella enterica subsp. enterica serovar Typhi; details: Salmonella enterica; time 20-45 min
Bacillus subtilis = test: Antibacterial activity against Bacillus subtilis measured after 20 to 45 mins by broth microdilution method; assay type: functional; details: time 20-45 min
Shigella dysenteriae = test: Antibacterial activity against Shigella dysenteriae measured after 20 to 45 mins by broth microdilution method; assay type: functional; details: time 20-45 min
Escherichia coli [4] = test: Antibacterial activity against Escherichia coli measured after 20 to 45 mins by broth microdilution method; assay type: functional; details: time 20-45 min
SK-OV-3 = test: Cytotoxicity against human SK-OV-3 cells by MTT assay; assay type: functional, cell-based
A2780 [5] = test: Cytotoxicity against human A2780 cells by MTT assay; assay type: functional, cell-based
HeLa = test: Cytotoxicity against human HeLa cells by MTT assay; assay type: functional, cell-based
Salmonella typhi [6] = test: Antibacterial activity against Salmonella typhi at 25 ug/ml measured after 20 to 45 mins by broth microdilution method; assay type: functional, organism-based; details: Salmonella enterica subsp. enterica serovar Typhi; dose 25.0 µg/ml, time 20-45 min
A2780 [7] = test: Induction of apoptosis in human A2780 cells assessed as increase in early apoptotic cells measured after 48 hrs by Annexin V-FITC/PI staining based FACS analysis; assay type: functional, cell-based; details: dose 1-9 µM
A2780 [8] = test: Induction of apoptosis in human A2780 cells assessed as late apoptotic cells at 1 uM measured after 48 hrs by Annexin V-FITC/PI staining based FACS analysis (reference value: 2.32 to 2.4%); assay type: functional
A2780 [9] = test: Induction of apoptosis in human A2780 cells assessed as necrotic cells at 1 uM measured after 48 hrs by Annexin V-FITC/PI staining based FACS analysis (reference value: 1.34 to 3.3%); assay type: functional
A2780 [10] = test: Induction of apoptosis in human A2780 cells assessed as necrotic cells at 3 uM measured after 48 hrs by Annexin V-FITC/PI staining based FACS analysis (reference value: 1.34 to 3.3%); assay type: functional
A2780 [11] = test: Induction of apoptosis in human A2780 cells assessed as chromatin condensation at 1 to 9 uM measured after 48 hrs by Hoechst 33258 staining based assay; assay type: functional, cell-based; details: dose 1-9 µM
A2780 [12] = test: Induction of apoptosis in human A2780 cells assessed as increase in late apoptotic cells measured after 48 hrs by Annexin V-FITC/PI staining based FACS analysis; assay type: functional, cell-based; details: dose 1-9 µM
A2780 [13] = test: Induction of apoptosis in human A2780 cells assessed as late apoptotic cells at 9 uM measured after 48 hrs by Annexin V-FITC/PI staining based FACS analysis (reference value: 2.32 to 2.4%); assay type: functional
A2780 [14] = test: Induction of apoptosis in human A2780 cells assessed as viable cells at 9 uM measured after 48 hrs by Annexin V-FITC/PI staining based FACS analysis (reference value: 92.6 to 92.8%); assay type: functional; details: read-out: Activity
A2780 [15] = test: Induction of apoptosis in human A2780 cells assessed as necrotic cells at 9 uM measured after 48 hrs by Annexin V-FITC/PI staining based FACS analysis (reference value: 1.34 to 3.3%); assay type: functional
Staphylococcus aureus [16] = test: Antibacterial activity against Staphylococcus aureus at 25 ug/ml measured after 20 to 45 mins by broth microdilution method; assay type: functional, organism-based; details: dose 25.0 µg/ml, time 20-45 min
A2780 [17] = test: Induction of apoptosis in human A2780 cells assessed as chromatin fragmentation at 1 to 9 uM measured after 48 hrs by Hoechst 33258 staining based assay; assay type: functional, cell-based; details: dose 1-9 µM
A2780 [18] = test: Induction of apoptosis in human A2780 cells assessed as early apoptotic cells at 1 uM measured after 48 hrs by Annexin V-FITC/PI staining based FACS analysis (reference value: 1.68 to 1.9%); assay type: functional
A2780 [19] = test: Induction of apoptosis in human A2780 cells assessed as late apoptotic cells at 3 uM measured after 48 hrs by Annexin V-FITC/PI staining based FACS analysis (reference value: 2.32 to 2.4%); assay type: functional
A2780 [20] = test: Induction of apoptosis in human A2780 cells assessed as viable cells at 3 uM measured after 48 hrs by Annexin V-FITC/PI staining based FACS analysis (reference value: 92.6 to 92.8%); assay type: functional; details: read-out: Activity
A2780 [21] = test: Induction of apoptosis in human A2780 cells assessed as viable cells at 1 uM measured after 48 hrs by Annexin V-FITC/PI staining based FACS analysis (reference value: 92.6 to 92.8%); assay type: functional; details: read-out: Activity
A2780 [22] = test: Induction of apoptosis in human A2780 cells assessed as early apoptotic cells at 3 uM measured after 48 hrs by Annexin V-FITC/PI staining based FACS analysis (reference value: 1.68 to 1.9%); assay type: functional
A2780 [23] = test: Induction of apoptosis in human A2780 cells assessed as early apoptotic cells at 9 uM measured after 48 hrs by Annexin V-FITC/PI staining based FACS analysis (reference value: 1.68 to 1.9%); assay type: functional
Vibrio parahaemolyticus [24] = test: Antibacterial activity against Vibrio parahaemolyticus at 25 ug/ml measured after 20 to 45 mins by broth microdilution method; assay type: functional, organism-based; details: dose 25.0 µg/ml, time 20-45 min
Escherichia coli [25] = test: Antibacterial activity against Escherichia coli at 25 ug/ml measured after 20 to 45 mins by broth microdilution method; assay type: functional, organism-based; details: dose 25.0 µg/ml, time 20-45 min

SMILES | MIC (Staphylococcus aureus [1]) | MIC (Enterococcus faecalis) | pIC50 (HepG2) | MIC (Vibrio parahaemolyticus [2]) | MIC (Salmonella typhi [3]) | MIC (Bacillus subtilis) | MIC (Shigella dysenteriae) | MIC (Escherichia coli [4]) | pIC50 (SK-OV-3) | pIC50 (A2780 [5]) | pIC50 (HeLa) | further results
CC1=C[C@@H]2/C=C(\C)CC[C@H](O)[C@H](O)/C=C/C(=O)O[C@]23C(=O)N[C@@H](CC(C)C)[C@@H]3[C@@H]1C [ASPOCHALASIN I] | > 25 µg/mL | > 25 µg/mL | < 4.70 | > 25 µg/mL | > 25 µg/mL | > 25 µg/mL | > 25 µg/mL | > 25 µg/mL | < 4.70 | < 4.70 | < 4.70 | –
C[C@H]1CC/C=C\CC(=O)c2c(O)cc(O)cc2CC(=O)O1 | > 25 µg/mL | > 25 µg/mL | < 4.70 | > 25 µg/mL | > 25 µg/mL | > 25 µg/mL | > 25 µg/mL | > 25 µg/mL | < 4.70 | < 4.70 | < 4.70 | –
C[C@H]1CCC/C=C/C(=O)c2c(O)cc(O)cc2CC(=O)O1 [DEHYDROCURVULARIN] | – | 13 µg/mL (≈ 44.8 µM) | 4.92 | 25 µg/mL (≈ 86.1 µM) | – | 3.1 µg/mL (≈ 10.7 µM) | 6.3 µg/mL (≈ 21.7 µM) | 25 µg/mL (≈ 86.1 µM) | 4.70 | 5.37 | 5.10 | Activity (Salmonella typhi [6]): inactive; Activity (A2780 [7]): Dose-Dependent Effect; Activity (A2780 [8]): 1.87%; Activity (A2780 [9]): 1.68%; Activity (A2780 [10]): 2.09%; Activity (A2780 [11]): Active; Activity (A2780 [12]): Dose-Dependent Effect; Activity (A2780 [13]): 12.2%; viability at 9 µM (A2780 [14]): 34.1%; Activity (A2780 [15]): 2.11%; Activity (Staphylococcus aureus [16]): inactive; Activity (A2780 [17]): Active; Activity (A2780 [18]): 2.2%; Activity (A2780 [19]): 5.07%; viability at 3 µM (A2780 [20]): 80.8%; viability at 1 µM (A2780 [21]): 94.2%; Activity (A2780 [22]): 11.1%; Activity (A2780 [23]): 51.6%
CC1=C[C@@H]2/C=C(\C)CC[C@@H](O)C(=O)C[C@@H](S[C@H]3CCC[C@H](C)OC(=O)Cc4cc(O)cc(O)c4C(=O)C3)C(=O)[C@]23C(=O)N[C@@H](CC(C)C)[C@@H]3[C@@H]1C | – | 3.1 µg/mL (≈ 4.28 µM) | 4.96 | – | – | 6.3 µg/mL (≈ 8.7 µM) | 13 µg/mL (≈ 18 µM) | – | 4.70 | 5.08 | 4.64 | Activity (Salmonella typhi [6]): inactive; Activity (A2780 [7]): Dose-Dependent Effect; Activity (A2780 [8]): 3.56%; Activity (A2780 [9]): 4.07%; Activity (A2780 [10]): 2.16%; Activity (A2780 [11]): Active; Activity (A2780 [12]): Dose-Dependent Effect; Activity (A2780 [13]): 19.1%; viability at 9 µM (A2780 [14]): 26%; Activity (Vibrio parahaemolyticus [24]): inactive; Activity (A2780 [15]): 1.87%; Activity (Staphylococcus aureus [16]): inactive; Activity (A2780 [17]): Active; Activity (A2780 [18]): 1.4%; Activity (A2780 [19]): 5.46%; viability at 3 µM (A2780 [20]): 87%; viability at 1 µM (A2780 [21]): 91%; Activity (A2780 [22]): 5.4%; Activity (A2780 [23]): 53.2%; Activity (Escherichia coli [25]): inactive
O=C(O)c1cn(C2CC2)c2cc(N3CCNCC3)c(F)cc2c1=O [CIPROFLOXACIN] | 1.6 µg/mL (≈ 4.83 µM) | 1.6 µg/mL (≈ 4.83 µM) | – | 3.1 µg/mL (≈ 9.36 µM) | 1.6 µg/mL (≈ 4.83 µM) | 1.6 µg/mL (≈ 4.83 µM) | 1.6 µg/mL (≈ 4.83 µM) | 1.6 µg/mL (≈ 4.83 µM) | – | – | – | –
CO[C@H]1CCC[C@H](C)OC(=O)Cc2cc(O)cc(O)c2C(=O)C1 [11ALPHA-METHOXYCURVULARIN] | > 25 µg/mL | > 25 µg/mL | < 4.70 | > 25 µg/mL | > 25 µg/mL | > 25 µg/mL | > 25 µg/mL | > 25 µg/mL | < 4.70 | < 4.70 | < 4.70 | –
CC1=C[C@@H]2/C=C(\C)CC[C@@H](O)[C@@H](O)[C@H](O)CC(=O)[C@]23C(=O)N[C@@H](CC(C)C)[C@@H]3[C@@H]1C | > 25 µg/mL | > 25 µg/mL | < 4.70 | > 25 µg/mL | > 25 µg/mL | > 25 µg/mL | > 25 µg/mL | > 25 µg/mL | < 4.70 | < 4.70 | < 4.70 | –
C[C@H]1CCC(=O)CCC(=O)c2c(O)cc(O)cc2CC(=O)O1 | > 25 µg/mL | > 25 µg/mL | < 4.70 | > 25 µg/mL | > 25 µg/mL | > 25 µg/mL | > 25 µg/mL | > 25 µg/mL | < 4.70 | < 4.70 | < 4.70 | –
CC1=C[C@@H]2/C=C(\C)CCC(=O)[C@@H](O)/C=C/C(=O)[C@]23C(=O)N[C@@H](CC(C)C)[C@@H]3[C@@H]1C | > 25 µg/mL | > 25 µg/mL | < 4.70 | > 25 µg/mL | > 25 µg/mL | > 25 µg/mL | > 25 µg/mL | > 25 µg/mL | < 4.70 | < 4.70 | < 4.70 | –
